In PubChem BioAssay (NCI):
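Interpolation was linear, between the two tested concentrations surrounding the appropriate level; five concentrations were tested over 48 hours in 96-well plates. GI50: concentration for 50% inhibition of growth. Definition used: TGI = concentration required for complete inhibition of growth.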

Experiments:
Test in all cases: DTP human tumour cell line panel, 48 h
HCT-15 colon = system: HCT-15 colon
DU-145 prostate = system: DU-145 prostate
UACC-257 melanoma = system: UACC-257 melanoma
K-562 leukemia = system: K-562 leukemia
HS 578T breast = system: HS 578T breast
MCF7 breast = system: MCF7 breast
SK-MEL-5 melanoma = system: SK-MEL-5 melanoma
NCI-H522 lung = system: NCI-H522 lung
EKVX NSCLC = system: EKVX NSCLC
HL-60(TB) leukemia = system: HL-60(TB) leukemia

Structure (SMILES) | TGI (HCT-15 colon) | TGI (DU-145 prostate) | TGI (UACC-257 melanoma) | TGI (K-562 leukemia) | TGI (HS 578T breast) | TGI (MCF7 breast) | TGI (SK-MEL-5 melanoma) | TGI (NCI-H522 lung) | TGI (EKVX NSCLC) | TGI (HL-60(TB) leukemia) | GI50 (HCT-15 colon) | GI50 (DU-145 prostate) | GI50 (UACC-257 melanoma) | GI50 (K-562 leukemia) | GI50 (HS 578T breast) | GI50 (MCF7 breast) | GI50 (SK-MEL-5 melanoma) | GI50 (NCI-H522 lung) | GI50 (EKVX NSCLC) | GI50 (HL-60(TB) leukemia)
NC(N)=NS(=O)(=O)c1ccc(NCc2c3ccccc3nc3ccccc23)cc1 | > 100 µM | > 100 µM | > 69.3 µM | > 93.6 µM | 28.6 µM | 17.5 µM | 62.8 µM | 26.9 µM | > 71.7 µM | 10.9 µM |  |  |  |  |  |  |  |  |  | 
OCCCN=NNc1ccc(-c2nc3ccccc3[nH]2)cc1 | > 100 µM | > 100 µM | > 100 µM | 84.9 µM | 21.9 µM | 2.4 µM | 88.6 µM | 60.6 µM | 52.6 µM | 96.2 µM | 4.43 µM | 4.12 µM | 10.4 µM | 16.6 µM | 4.54 µM | 0.0891 µM | 15.6 µM | 12.5 µM | 15.5 µM | 25.2 µM
COc1cccc(C2C(C#N)=C(N)Oc3cc(N)ccc32)c1 (stereo not drawn) | > 100 µM | 34 µM | > 100 µM | > 100 µM | > 100 µM | > 100 µM | > 61.8 µM | 0.771 µM | > 100 µM | 0.745 µM | 0.385 µM | 0.71 µM | 0.319 µM | 0.396 µM | 0.314 µM | 0.314 µM | 0.396 µM | 0.242 µM | 0.854 µM | 0.35 µM
CCOc1ccc([C@@H]2[C@@H](Oc3ccccc3)C(=O)N2c2cc(OC)c(OC)c(OC)c2)cc1 | > 100 µM | > 100 µM | > 100 µM | > 100 µM | > 100 µM | > 100 µM | 1.16 µM | 0.371 µM | > 100 µM | 0.0691 µM | 0.186 µM | 0.218 µM | 86.4 µM | 0.0367 µM | 0.0583 µM | 0.0431 µM | 0.0395 µM | 0.0323 µM | 0.0937 µM | 0.0263 µM
CCCCCCCCCCCCCCCCCC1=NCCN1CS(=O)(=O)O | 23.5 µM | 17.2 µM | 33.9 µM | > 100 µM | 40 µM | 35.2 µM | 40.5 µM | 54 µM | 25 µM | 39.9 µM | 4.49 µM | 5.19 µM | 17.1 µM | 3.93 µM | 11.6 µM | 13.4 µM | 18.8 µM | 24.5 µM | 11.4 µM | 14.3 µM
ClC1=C(Cl)C(Cl)=C(Cl)C1=C/C=C/c1ccccc1 | 0.391 µM | 1.32 µM | 0.41 µM | > 100 µM | 0.685 µM | 0.664 µM | 0.563 µM | 0.562 µM | 1.23 µM |  | 0.179 µM | 0.42 µM | 0.184 µM | 0.439 µM | 0.208 µM | 0.139 µM | 0.196 µM | 0.216 µM | 0.215 µM | 0.329 µM
CC(C)(C)[Si](C)(C)OCC1OC(n2cnc3c(NC(=O)c4ccccc4)ncnc32)CC1O (stereo not drawn) | > 100 µM | > 100 µM | > 100 µM | 48.2 µM | 45.8 µM | > 100 µM | 33.3 µM | 37.7 µM | > 100 µM | 49.2 µM |  |  |  |  |  |  |  |  |  | 
CC(=O)c1c(C(F)(F)F)n([O-])c2ccc(Cl)cc2[n+]1=O | 4.05 µM | 0.576 µM | 20.8 µM | 3.52 µM | > 26.5 µM |  | 2.65 µM | 9.62 µM | 2.29 µM | 4.65 µM | 0.649 µM | 0.158 µM | 4 µM | 0.509 µM | 6.65 µM | 0.216 µM | 0.822 µM | 2.5 µM | 0.818 µM | 0.681 µM
COc1cc(NCCCCN=C(N)NC(N)=NC(C)C)c2ncccc2c1 | > 100 µM | > 59.9 µM | 10.5 µM | 25.8 µM | 27.1 µM | 0.327 µM | 10.7 µM | 3.93 µM | > 62 µM | 10.9 µM | > 100 µM | 21 µM | 3.26 µM | 3.65 µM | 5.51 µM | 0.0516 µM | 2.84 µM | 0.929 µM | 5.83 µM | 3.47 µM
COc1ccc(C(=O)c2ccc(OC)c(OC)c2OC)cc1 | > 100 µM | 10.6 µM | > 100 µM | > 100 µM | 3.65 µM | > 100 µM | 37.2 µM | 6.03 µM | > 100 µM | > 100 µM | 0.596 µM | 2.14 µM | 3.73 µM | 0.351 µM | 0.915 µM | 0.697 µM | 1.68 µM | 1.81 µM | 4.77 µM | 0.464 µM
O=C(O)C1C(C(=O)Nc2ccc3c(c2)Cc2ccccc2-3)C2(Cl)C(Cl)=C(Cl)C1(Cl)C2(Cl)Cl (stereo not drawn) | 48.5 µM | > 100 µM | 48.2 µM | 13.5 µM | 49.2 µM | 62.2 µM | 27.5 µM | 39.2 µM | 97.6 µM | 55.8 µM |  |  |  |  |  |  |  |  |  | 
NC(CSC(c1ccccc1)(c1ccccc1)c1ccc(Cl)cc1)C(=O)O (stereo not drawn) | 52.9 µM | 0.863 µM | > 78.7 µM | > 57.6 µM | 3.83 µM | 18.9 µM | 14.1 µM | 3.71 µM | > 33.9 µM | 0.724 µM | 0.362 µM | 0.307 µM | 3.87 µM | 0.209 µM | 0.114 µM | 0.0647 µM | 0.0612 µM | 0.128 µM | 0.342 µM | 0.24 µM
CC(=O)Nc1ccc(Sc2ccc([N+](=O)[O-])o2)cc1 | 3.18 µM | 5.98 µM | 3.52 µM | > 30.8 µM | 24.9 µM | 6.92 µM | 11.4 µM | 0.711 µM | 25.2 µM | 3.79 µM | 0.806 µM | 2.26 µM | 1.61 µM | 2.22 µM | 3.87 µM | 1.88 µM | 3.32 µM | 0.214 µM | 4.46 µM | 1.29 µM
COc1ccc(/C(Cl)=C(\C=O)c2ccc([N+](=O)[O-])cc2)cc1OC | 23.7 µM | > 100 µM | 29.7 µM | > 93.3 µM | > 100 µM | 36.8 µM | 23 µM | > 35.8 µM | > 59.7 µM | 11.6 µM |  |  |  |  |  |  |  |  |  | 
